# Source: patent US7951815B2, “Substituted 1,4,8-triazaspiro [4,5]decan-2-one compounds” (Gruenenthal GmbH, priority 2004, dated 2011)
# Target: T1, 5-HT transporter (Rattus norvegicus, UniProt P31652)
# T1 construct: synaptosomes of rat brain areas are freshly isolated; from tissue; host or cells: rat brain synaptosomes (P2 fraction) from marrow and pons
# Assay: Inhibition of 5-HT uptake in rat brain synaptosomes
# Assay type: biochemical
# Details: Table III; rat, 1 μM
# T1 sequence (P31652 whole entry): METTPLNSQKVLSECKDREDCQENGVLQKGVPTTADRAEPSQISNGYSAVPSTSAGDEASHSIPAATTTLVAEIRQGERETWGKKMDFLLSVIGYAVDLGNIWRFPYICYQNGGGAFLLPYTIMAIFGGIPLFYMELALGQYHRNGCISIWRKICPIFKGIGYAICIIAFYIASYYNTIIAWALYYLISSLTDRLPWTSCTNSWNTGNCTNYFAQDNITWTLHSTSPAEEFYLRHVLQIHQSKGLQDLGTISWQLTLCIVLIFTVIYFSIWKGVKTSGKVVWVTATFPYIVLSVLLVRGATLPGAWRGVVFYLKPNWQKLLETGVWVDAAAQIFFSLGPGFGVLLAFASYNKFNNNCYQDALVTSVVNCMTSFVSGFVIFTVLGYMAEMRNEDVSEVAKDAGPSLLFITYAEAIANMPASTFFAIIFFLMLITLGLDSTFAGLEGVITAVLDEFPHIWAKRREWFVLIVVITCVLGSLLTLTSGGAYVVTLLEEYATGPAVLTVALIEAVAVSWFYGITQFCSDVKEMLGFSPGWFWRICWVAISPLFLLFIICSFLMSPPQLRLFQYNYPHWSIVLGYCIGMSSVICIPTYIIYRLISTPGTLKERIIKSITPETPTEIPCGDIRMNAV
row,"Uptake 5-HT, rat, 1 μM, % inhibition [%]",SMILES
1,48,"CCOc1ccccc1C(=O)N1CCC2(CC1)NC(CC(C)C)C(=O)N2CCCCOC(C)=O (stereo not shown) [Example 310, Butyl 4-[8-(2-ethoxybenzoyl)-3-isobutyl-2-oxo-1,4,8-triazaspiro[4,5]dec-1-yl]acetate]"

# Same assay, conditions: read-out: Uptake 5-HT, % inhibition; Table III; rat, 1 μM
row,inhibition at 1 µM [%],SMILES
1,55,"Cc1nnsc1C(=O)N1CCC2(CC1)NC(C(C)C)C(=O)N2Cc1ccccc1 (stereo not shown) [Example 216, 1-Benzyl-3-isopropyl-8-(4-methyl[1,2,3]thiadiazole-5-carbonyl)-1,4,8-triazaspiro[4,5]decan-2-one]"
2,75,"CCC(CC)C(=O)N1CCC2(CC1)NCC(=O)N2Cc1ccccc1C#N [Example 68, 2-[8-(2-Ethylbutyryl)-2-oxo-1,4,8-triazaspiro[4,5]dec-1-ylmethyl]benzonitrile]"
3,42,"CSc1ncccc1C(=O)N1CCC2(CC1)NC(Cc1ccccc1)C(=O)N2C (stereo not shown) [Example 143, 3-Benzyl-1-methyl-8-(2-methylsulfanylpyridin-3-carbonyl)-1,4,8-triazaspiro[4,5]decan-2-one]"
4,32,"C=CCN1C(=O)C(C(C)C)NC12CCN(C(=O)c1ccccc1C)CC2 (stereo not shown) [Example 325, 1-Allyl-3-isopropyl-8-(2-methylbenzoyl)-1,4,8-triazaspiro[4,5]decan-2-one]"
5,32,"Cc1cc(C(=O)N2CCC3(CC2)NC(=O)C(C(C)C)N3)ccc1Br (stereo not shown) [Example 130, 8-(4-Bromo-3-methylbenzoyl)-3-isopropyl-1,4,8-triazaspiro[4,5]decan-2-one]"
6,32,"CC(C)C1NC2(CCN(C(=O)c3ccco3)CC2)N(Cc2ccccc2)C1=O (stereo not shown) [Example 228, 1-Benzyl-8-(furan-2-carbonyl)-3-isopropyl-1,4,8-triazaspiro[4,5]decan-2-one]"
7,56,"CCCCN1C(=O)C(Cc2ccccc2)NC12CCN(C(=O)c1ccccn1)CC2 (stereo not shown) [Example 202, 3-Benzyl-1-butyl-8-(pyridin-2-carbonyl)-1,4,8-triazaspiro[4,5]decan-2-one]"
8,82,"Cc1cc(C(=O)N2CCC3(CC2)NCC(=O)N3Cc2ccccc2F)n(C(C)(C)C)n1 [Example 253, 8-(2-tert-Butyl-5-methyl-2H-pyrazole-3-carbonyl)-1-(2-fluorobenzyl)-1,4,8-triazaspiro[4,5]decan-2-one]"
9,49,"COCC(=O)N1CCC2(CC1)NC(C(C)C)C(=O)N2Cc1cccc(C#N)c1 (stereo not shown) [Example 282, 3-[3-Isopropyl-8-(2-methoxyacetyl)-2-oxo-1,4,8-triazaspiro[4,5]dec-1-ylmethyl]benzonitrile]"
10,61,"CCOC(=O)CN1C(=O)C(Cc2ccccc2)NC12CCN(C(=O)c1ccccc1F)CC2 (stereo not shown) [Example 315, Ethyl [3-benzyl-8-(2-fluorobenzoyl)-2-oxo-1,4,8-triazaspiro[4,5]dec-1-yl]acetate]"
11,51,"COC(=O)c1ccc(CN2C(=O)CNC23CCN(C(=O)Cc2ccccc2)CC3)cc1 [Example 283, Methyl 4-(2-oxo-8-phenylacetyl-1,4,8-triazaspiro[4,5]dec-1-ylmethyl)benzoate]"
12,40,"COC(=O)c1ccc(CN2C(=O)CNC23CCN(C(=O)C2CCCC2)CC3)cc1 [Example 269, Methyl 4-(8-cyclopentanecarbonyl-2-oxo-1,4,8-triazaspiro[4,5]dec-1-ylmethyl)benzoate]"
13,46,"CCCCN1C(=O)C(Cc2ccccc2)NC12CCN(C(=O)c1snnc1C)CC2 (stereo not shown) [Example 243, 3-Benzyl-1-butyl-8-(4-methyl[1,2,3]thiadiazole-5-carbonyl)-1,4,8-triazaspiro[4,5]decan-2-one]"
14,60,"Cn1nc(C(C)(C)C)cc1C(=O)N1CCC2(CC1)NCC(=O)N2Cc1ccccc1F [Example 313, 8-(5-tert-Butyl-2-methyl-2H-pyrazole-3-carbonyl)-1-(2-fluorobenzyl)-1,4,8-triazaspiro[4,5]decan-2-one]"
15,50,"C#CCN1C(=O)C(Cc2ccccc2)NC12CCN(C(=O)c1cc(C)on1)CC2 (stereo not shown) [Example 251, 3-Benzyl-8-(5-methylisoxazole-3-carbonyl)-1-prop-2-ynyl-1,4,8-triazaspiro[4,5]decan-2-one]"
